Source: PubChem BioAssay AID248 (DTP/NCI, 2004)
Where “and” joins values, the source holds several entries; their conditions need not be identical. Equal entries are not always repeated. Toxic doses and inconclusive results are not listed. No stated cut-off is given here; in the data, active means T/C of 150% or more; inactive means T/C below 125%.

System: L1210 leukemia ip in BDF1 mice, survival T/C
Assay: NCI In Vivo Anticancer Drug Screen. Data for tumor model L1210 Leukemia (intraperitoneal) in B6D2F1 (BDF1) mice
Conditions: endpoint: mean survival time, higher = longer survival
In short: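 Value reflects the ratio of survival in compound-treated mice to survival in vehicle-treated controls, with both groups carrying the same transplanted tumor.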

[1] = dose: 100.0 mg/kg/injection, schedule: Q01DX001 (ip), vehicle: Klucel (hydroxypropylcellulose) (HPC)
[2] = dose: 200.0 mg/kg/injection, schedule: Q01DX001 (ip), vehicle: Klucel (hydroxypropylcellulose) (HPC)
[3] = dose: 400.0 mg/kg/injection, schedule: Q01DX001 (ip), vehicle: Klucel (hydroxypropylcellulose) (HPC)
[4] = dose: 100.0 mg/kg/injection, schedule: Q01DX009 (ip), vehicle: Klucel (hydroxypropylcellulose) (HPC)
[5] = dose: 200.0 mg/kg/injection, schedule: Q01DX009 (ip), vehicle: Klucel (hydroxypropylcellulose) (HPC)
[6] = dose: 400.0 mg/kg/injection, schedule: Q01DX009 (ip), vehicle: Klucel (hydroxypropylcellulose) (HPC)
[7] = dose: 100.0 mg/kg/injection, schedule: Q04DX003 (ip), vehicle: Klucel (hydroxypropylcellulose) (HPC)
[8] = dose: 100.0 mg/kg/injection, schedule: Q04DX003 (ip), vehicle: saline with Tween-80
[9] = dose: 200.0 mg/kg/injection, schedule: Q04DX003 (ip), vehicle: saline with Tween-80
[10] = dose: 400.0 mg/kg/injection, schedule: Q04DX003 (ip), vehicle: saline with Tween-80
[11] = dose: 50.0 mg/kg/injection, schedule: Q01DX001 (ip), vehicle: carboxymethylcellulose (CMC)
[12] = dose: 100.0 mg/kg/injection, schedule: Q01DX001 (ip), vehicle: carboxymethylcellulose (CMC)
[13] = dose: 200.0 mg/kg/injection, schedule: Q01DX001 (ip), vehicle: carboxymethylcellulose (CMC)
[14] = dose: 400.0 mg/kg/injection, schedule: Q01DX001 (ip), vehicle: carboxymethylcellulose (CMC)

Measured: T/C

Cc1nc(N)[nH]c(=O)c1CCCNC(=O)c1ccccc1
inactive: [1] 94 % of control | [2] 91 % of control | [3] 87 % of control

COC(=O)c1cc(=O)[nH]n1C
inactive: [4] 104 % of control | [5] 104 % of control | [6] 101 % of control

COC(C(=O)O)c1ccc(Br)cc1 (stereo not given)
inactive: dose: 75.0 mg/kg/injection, schedule: Q01DX001 (ip), vehicle: acetone 95 % of control | dose: 150.0 mg/kg/injection, schedule: Q01DX001 (ip), vehicle: acetone 94 % of control

c1ccc(/C(N=NC(c2ccccc2)(c2ccccc2)c2ccccc2)=C(/N=NC(c2ccccc2)(c2ccccc2)c2ccccc2)c2ccccc2)cc1
inactive: dose: 100.0 mg/kg/injection, schedule: Q01DX009 (ip), vehicle: saline sonified 94 % of control | dose: 200.0 mg/kg/injection, schedule: Q01DX009 (ip), vehicle: saline sonified 97 % of control | dose: 400.0 mg/kg/injection, schedule: Q01DX009 (ip), vehicle: saline sonified 94 % of control

CCOC=NC1=C(C#N)CN(Cc2ccccc2)CC1
inactive: dose: 100.0 mg/kg/injection, schedule: Q04DX002 (ip), vehicle: Klucel (hydroxypropylcellulose) (HPC) 93 % of control | dose: 200.0 mg/kg/injection, schedule: Q04DX002 (ip), vehicle: Klucel (hydroxypropylcellulose) (HPC) 93 % of control | dose: 400.0 mg/kg/injection, schedule: Q04DX002 (ip), vehicle: Klucel (hydroxypropylcellulose) (HPC) 90 % of control

COc1cccc(/C(=C/c2ccc([N+](=O)[O-])cc2)C(=O)O)c1
inactive: [1] 100 % of control | [4] 97 % of control and 100 % of control | [7] 100 % of control | [2] 109 % of control | [5] 96 % of control and 87 % of control | dose: 200.0 mg/kg/injection, schedule: Q04DX003 (ip), vehicle: Klucel (hydroxypropylcellulose) (HPC) 105 % of control | [3] 97 % of control | [6] 100 % of control and 91 % of control | dose: 400.0 mg/kg/injection, schedule: Q04DX003 (ip), vehicle: Klucel (hydroxypropylcellulose) (HPC) 105 % of control

CNS(=O)(=O)CCC(N)C(=O)O (stereo not given)
inactive: [8] 97 % of control | [9] 103 % of control | [10] 97 % of control

BrC1CC2C3CCC(C3)C2C1Br (stereo not given)
inactive: [11] 91 % of control | [12] 93 % of control | [13] 93 % of control | [14] 93 % of control

O=C(O)CC(CC(=O)O)c1cccc([N+](=O)[O-])c1
inactive: dose: 100.0 mg/kg/injection, schedule: Q01DX001 (ip), vehicle: acetone 96 % of control | dose: 200.0 mg/kg/injection, schedule: Q01DX001 (ip), vehicle: acetone 98 % of control | dose: 400.0 mg/kg/injection, schedule: Q01DX001 (ip), vehicle: acetone 98 % of control

CCCC(OC(C[N+](=O)[O-])C(Cl)(Cl)Cl)c1ccccc1 (stereo not given)
inactive: dose: 100.0 mg/kg/injection, schedule: Q01DX009 (ip), vehicle: saline with Tween-80 97 % of control | [8] 98 % of control | dose: 200.0 mg/kg/injection, schedule: Q01DX009 (ip), vehicle: saline with Tween-80 101 % of control | [9] 96 % of control | dose: 400.0 mg/kg/injection, schedule: Q01DX009 (ip), vehicle: saline with Tween-80 107 % of control | [10] 96 % of control

CCOC(=O)c1ccc2c3c([nH]c2c1C)-c1ccccc1CC3
inactive: [11] 95 % of control | [12] 97 % of control | [13] 106 % of control | [14] 103 % of control

CSc1ncnc2c1ncn2C1OC(CO)C(O)OC1O (stereo not given)
inactive: dose: 15.0 mg/kg/injection, schedule: Q01DX009 (ip), vehicle: saline 117 % of control | dose: 25.0 mg/kg/injection, schedule: Q01DX009 (ip), vehicle: saline 111 % of control | dose: 25.0 mg/kg/injection, schedule: Q04DX003 (ip), vehicle: Klucel (hydroxypropylcellulose) (HPC) 104 % of control | dose: 45.0 mg/kg/injection, schedule: Q01DX001 (ip), vehicle: saline 106 % of control | dose: 45.0 mg/kg/injection, schedule: Q01DX009 (ip), vehicle: saline 119 % of control | dose: 50.0 mg/kg/injection, schedule: Q04DX003 (ip), vehicle: Klucel (hydroxypropylcellulose) (HPC) 109 % of control | dose: 67.0 mg/kg/injection, schedule: Q01DX001 (ip), vehicle: saline 118 % of control | dose: 70.0 mg/kg/injection, schedule: Q01DX009 (ip), vehicle: saline 119 % of control | dose: 75.0 mg/kg/injection, schedule: Q01DX009 (ip), vehicle: saline 116 % of control | [7] 110 % of control | dose: 200.0 mg/kg/injection, schedule: Q01DX001 (ip), vehicle: saline 112 % of control

CCN(CC)C(=O)N1CCN(c2ccc(Cl)cc2)CC1
inactive: dose: 75.0 mg/kg/injection, schedule: Q01DX001 (ip), vehicle: saline 106 % of control | dose: 75.0 mg/kg/injection, schedule: Q04DX003 (ip), vehicle: saline 103 % of control | dose: 150.0 mg/kg/injection, schedule: Q01DX001 (ip), vehicle: saline 94 % of control | dose: 150.0 mg/kg/injection, schedule: Q04DX003 (ip), vehicle: saline 100 % of control | dose: 300.0 mg/kg/injection, schedule: Q01DX001 (ip), vehicle: saline 108 % of control | dose: 300.0 mg/kg/injection, schedule: Q04DX003 (ip), vehicle: saline 91 % of control

Nc1ccc(Nc2ccc([N+](=O)[O-])cc2[N+](=O)[O-])cc1
inactive: dose: 50.0 mg/kg/injection, schedule: Q01DX009 (ip), vehicle: gum acacia 99 % of control | dose: 50.0 mg/kg/injection, schedule: Q04DX003 (ip), vehicle: gum acacia 100 % of control | dose: 100.0 mg/kg/injection, schedule: Q01DX009 (ip), vehicle: gum acacia 94 % of control | dose: 100.0 mg/kg/injection, schedule: Q04DX003 (ip), vehicle: gum acacia 101 % of control | dose: 200.0 mg/kg/injection, schedule: Q01DX009 (ip), vehicle: gum acacia 94 % of control | dose: 200.0 mg/kg/injection, schedule: Q04DX003 (ip), vehicle: gum acacia 98 % of control

O=C1c2ccccc2C(=O)N1Cc1cccc(CBr)c1
inactive: dose: 50.0 mg/kg/injection, schedule: Q01DX001 (ip), vehicle: Klucel (hydroxypropylcellulose) (HPC) 105 % of control | [1] 92 % of control | [2] 91 % of control

COC(=O)c1cc(S(=O)(=O)c2cc(C)c(O)c(C(=O)OC)c2)cc(C)c1O
inactive: dose: 100.0 mg/kg/injection, schedule: Q04DX002 (ip), vehicle: carboxymethylcellulose (CMC) 92 % of control | dose: 200.0 mg/kg/injection, schedule: Q04DX002 (ip), vehicle: carboxymethylcellulose (CMC) 95 % of control | dose: 400.0 mg/kg/injection, schedule: Q04DX002 (ip), vehicle: carboxymethylcellulose (CMC) 95 % of control

COC(=O)C(I)C(OC)c1ccccc1 (stereo not given)
inactive: [8] 98 % of control | [9] 96 % of control | [10] 95 % of control

CCCCCCCCCCCCCCCCn1cnc2ncnc(Cl)c21
inactive: dose: 12.5 mg/kg/injection, schedule: Q01DX005 (ip), vehicle: other 100 % of control | dose: 25.0 mg/kg/injection, schedule: Q01DX005 (ip), vehicle: other 102 % of control | dose: 50.0 mg/kg/injection, schedule: Q01DX005 (ip), vehicle: other 98 % of control | dose: 100.0 mg/kg/injection, schedule: Q01DX005 (ip), vehicle: other 105 % of control | dose: 200.0 mg/kg/injection, schedule: Q01DX005 (ip), vehicle: other 100 % of control
